According to patent US20020058244A1, “Method for detecting uracil biosynthesis inhibitors and their use as herbicides” (priority 2000, published 2002):

How the values were obtained:
[1] = target: T1, OPRTase (Rattus norvegicus, UniProt A0ACM8Q7Z8); conditions: rat brain tissue; cited from earlier work
T1 construct: host or cells: rat brain tissue
T1 sequence (A0ACM8Q7Z8 1-481): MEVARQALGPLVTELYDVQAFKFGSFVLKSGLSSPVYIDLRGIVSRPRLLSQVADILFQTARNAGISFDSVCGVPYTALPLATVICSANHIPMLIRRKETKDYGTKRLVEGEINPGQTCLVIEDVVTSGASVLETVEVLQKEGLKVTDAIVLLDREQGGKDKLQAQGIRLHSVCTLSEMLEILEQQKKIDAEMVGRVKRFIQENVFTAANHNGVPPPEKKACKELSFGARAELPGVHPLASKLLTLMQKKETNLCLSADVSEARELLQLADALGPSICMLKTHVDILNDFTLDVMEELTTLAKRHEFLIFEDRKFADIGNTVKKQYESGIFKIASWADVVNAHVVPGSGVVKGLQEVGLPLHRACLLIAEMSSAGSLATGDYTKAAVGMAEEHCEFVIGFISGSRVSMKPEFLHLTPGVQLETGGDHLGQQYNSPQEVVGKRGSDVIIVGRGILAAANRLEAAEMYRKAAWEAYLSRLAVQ

[2] = target: uridine phosphorylase; conditions: salvage pathway; cited from earlier work
[3] = target: T2, ODCase (Rattus norvegicus, UniProt A0ACM8Q7Z8); conditions: rat brain tissue; cited from earlier work
T2 construct: host or cells: rat brain tissue

[4] = tested on: whole plant; experiment: Whole plant injury by barbiturate; conditions: in vivo
[5] = target: T3, dihyroorotate dehydrogenase (DHOD) (Rattus norvegicus, UniProt Q63707); conditions: rat brain tissue; cited from earlier work
T3 construct: host or cells: rat brain tissue
T3 sequence (Q63707 whole entry): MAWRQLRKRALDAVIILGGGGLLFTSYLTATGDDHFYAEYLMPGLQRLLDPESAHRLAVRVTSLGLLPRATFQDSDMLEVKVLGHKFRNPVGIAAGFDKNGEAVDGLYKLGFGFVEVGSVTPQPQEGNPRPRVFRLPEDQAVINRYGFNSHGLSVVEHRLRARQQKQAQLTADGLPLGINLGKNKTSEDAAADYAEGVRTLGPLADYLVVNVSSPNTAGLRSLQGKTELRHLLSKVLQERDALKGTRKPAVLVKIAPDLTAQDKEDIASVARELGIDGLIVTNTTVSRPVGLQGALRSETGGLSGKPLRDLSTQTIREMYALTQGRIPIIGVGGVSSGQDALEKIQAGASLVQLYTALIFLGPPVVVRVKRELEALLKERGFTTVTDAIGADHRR

[6] = tested on: OPRTase/ODCase; experiment: In vitro enzymatic conversion of [14C]-orotate to UMP, cell free extract from corn root tissue; format: biochemical
Protocol: Etiolated corn roots and shoots or soybean suspension cells were used as tissue. Corn seedlings were germinated on vermiculite for 4 days in the dark at 26_C. and roots and shoots harvested separately. The soybean cells were grown in media consisting of Muashige and Skoog salts (Physiol. Plant (1962) 15:473-497) purchased from Gibco/BRL, vitamins (glycine 2 mg/L, thiamine 0.1 mg/L, nicotinic acid 0.5 mg/L, pyridoxine-HCl 0.5 mg/L), myo-inositol (100 mg/L), 2,4-D ([…]), and 30 g/L sucrose. Cell cultures are grown at 25° C. with gentle shaking. Cultures were transfered every 7 days to new growth media.
Approximately 5-10 g plant tissue were ground in liquid nitrogen and resuspended in 1:2 (w/v) homogenization buffer (30 mM KPO4^−; 25 mM […], 5 mM MgCl2, 5 mM ascorbic acid, pH 7.2). The homogenate was centrifuged at 10,000 g for 20 min, and the supernatant desalted using BioRad columns. The desalted supernatant was used for OPRTase/ODCase enzyme assays. For DHOD enzyme extraction, the supernatant was further centrifuged at 100,000 g for 45 min to obtain a microsomal pellet. The microsomal pellet was resuspended in 3-4 ml resuspension buffer (70 mM Tris-base, pH 7.4) containing 1% Triton X-100.
All enzyme assays were performed according to Rawls, J. M. (1978) Anal. Biochem. 86 (1): 107-117 and Cleaveland et al. (1995). Biochem. Pharm. 49(7):947-954. Enzyme assays were performed in a total volume of 200 ul with 1 uM [^14C]carbamoyl aspartate, [^14C]dihydroorotate or [^14C]orotate as substrates, and 1-5 mM probe compound or barbiturate as inhibitors. The [^14C]carbamoyl aspartate and [^14C]dihydroorotate assay was performed using a potassium phosphate buffer, pH 7.4 with 12 mM NAD^+, and 10 mM MgCl2. […] Over time, 25 ul aliquots were taken from the reaction tube and boiled for 5 min to stop the reaction. Samples were spotted onto cellulose TLC plates and run using 0.1 M potassium phosphate buffer, 100% ammonium sulfate, and 1-propanol (10:6:1). Plates were developed using a TLC plate radioisotope detector. Orotate and UMP standards were run next to unknowns to identify the conversion of [^14C]orotate to [^14C]UMP in the enzyme assay.

Question: With `O=C1CC(=O)NC(=O)N1` [barbiturate, reference compound] as the compound, how does the Ki [1] read?
Answer: 18 µM

Question: And the Ki [2]?
Answer: 786 µM

Question: What about the Ki [3] of the same compound?
Answer: 75 µM

Question: What about the whole plant injury [4] of the same compound?
Answer: does not cause whole plant injury

Question: What about the Ki [5] of the same compound?
Answer: 412 µM

Question: And the “inhibition of the conversion of orotic acid to UMP” value ([6]; 1 mM)?
Answer: 80%

Question: What about the “inhibition of the conversion of orotic acid to UMP” value ([6]; 2 mM) of the same compound?
Answer: 100%

Question: And the “radiolabeled orotate converted to UMP” value ([6]; 15 minutes after treatment, 100 μM PRPP, untreated control 55%)?
Answer: 20%

Question: And the “inhibition of the conversion of [14C]-orotate to UMP” value ([6]; FIG. 10, concentration not stated)?
Answer: 80%

Question: What about the “effect on OPRTase/ODCase activity (conversion of [14C]-orotate to UMP)” value ([6]; cell free extract) of the same compound?
Answer: inhibits

Question: What about the IC50 ([6]; corn root cell free extract, read-out: concentration at which there is 50% inhibition of UMP synthesis (IC50)) of the same compound?
Answer: < 270 µM
